Literature values, collected in US10076471B2, “Antimicrobial denture” (University of Dammam, priority 2016, dated 2018).
≈ marks a conversion by molar mass, not a printed value.

Tested on: Candida
Details: against Candida

For `COC1=CC(=O)c2ccccc2C1=O` [Lawsone methyl ether, 2-methoxy-1,4-napthoquinone], the minimal fungicidal concentration is listed as 1.25 µg/mL (≈ 6.64 µM).
